Experimental data from ChEMBL document CHEMBL1201862, “PubChem BioAssay data set” (2004).
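Method: 48-hour compound exposure of cells in 96-well plates, five concentrations, linear interpolation of endpoints. GI50 marks 50% less growth.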 The source made the active and inactive calls. No stated cut-off is given here; in the data, active = GI50 up to about 1.1 µM and inactive = higher.

Experiments:
Assay in all cases: inhibition of tumour cell growth, NCI panel, 48 h
[1] = test system: 786-0
[2] = test system: ACHN
[3] = test system: CAKI-1
[4] = test system: HCT-15
[5] = test system: HT-29
[6] = test system: K562
[7] = test system: MDA-MB-231
[8] = test system: MDA-MB-435
[9] = test system: MOLT-4
[10] = test system: RPMI-8226
[11] = test system: RXF 393
[12] = test system: SF-268
[13] = test system: SF-295
[14] = test system: SF-539
[15] = test system: SK-OV-3
[16] = test system: UACC-257
[17] = test system: UACC-62
[18] = test system: HOP-92
[19] = test system: T47D
[20] = test system: Hs-578T

SMILES | GI50 [1] | GI50 [2] | GI50 [3] | GI50 [4] | GI50 [5] | GI50 [6] | GI50 [7] | GI50 [8] | GI50 [9] | GI50 [10] | GI50 [11] | GI50 [12] | GI50 [13] | GI50 [14] | GI50 [15] | GI50 [16] | GI50 [17] | GI50 [18] | GI50 [19] | GI50 [20]
COc1ccc(O[C@H](CO)C[C@@H]2COC(C)(C)O2)cc1 | > 100 µM (inactive) | > 100 µM (inactive) | > 100 µM (inactive) | > 100 µM | > 100 µM (inactive) | > 100 µM (inactive) | > 100 µM (inactive) | > 100 µM (inactive) | > 100 µM (inactive) | > 100 µM (inactive) | > 100 µM (inactive) | > 100 µM (inactive) | > 100 µM (inactive) | > 100 µM (inactive) | > 100 µM (inactive) | > 100 µM (inactive) | > 100 µM (inactive) | – | – | –
NC(=O)C(=Cn1c(=S)[nH]c2ccc([N+](=O)[O-])cc21)C(N)=O | > 100 µM (inactive) | > 100 µM (inactive) | > 100 µM (inactive) | > 100 µM | > 100 µM (inactive) | – | > 100 µM (inactive) | > 100 µM (inactive) | > 100 µM (inactive) | – | > 100 µM (inactive) | > 100 µM (inactive) | > 100 µM (inactive) | > 100 µM (inactive) | > 100 µM (inactive) | > 100 µM (inactive) | > 100 µM (inactive) | > 100 µM (inactive) | > 100 µM (inactive) | –
O=C(CO[N+](=O)[O-])OC/C=C/c1ccccc1 | > 100 µM (inactive) | > 100 µM (inactive) | > 100 µM (inactive) | > 100 µM | > 100 µM (inactive) | > 100 µM (inactive) | – | – | > 100 µM (inactive) | > 100 µM (inactive) | > 100 µM (inactive) | > 100 µM (inactive) | > 100 µM (inactive) | > 100 µM (inactive) | > 100 µM (inactive) | > 100 µM (inactive) | > 10 µM (inactive) | > 100 µM (inactive) | – | –
Brc1ccc(N2C[N+](c3ccc(Br)cc3)=NC(c3ccccc3)=N2)cc1 | 16 µM (inactive) | 13.6 µM (inactive) | 18.1 µM (inactive) | 17.8 µM | 14.1 µM (inactive) | 10.9 µM (inactive) | – | – | 14.2 µM (inactive) | 9.35 µM (inactive) | 22.6 µM (inactive) | 18.3 µM (inactive) | 15.5 µM (inactive) | 15.8 µM (inactive) | 19.6 µM (inactive) | 17.5 µM (inactive) | 14.8 µM (inactive) | 18.7 µM (inactive) | – | –
N[C@@H](CCC(=O)NC(Cc1ccccc1)C(=O)NCP(=O)(O)O)C(=O)O (some centres not stated) | > 100 µM (inactive) | > 100 µM (inactive) | – | > 100 µM | > 100 µM (inactive) | > 100 µM (inactive) | > 100 µM (inactive) | > 100 µM (inactive) | > 100 µM (inactive) | > 100 µM (inactive) | – | – | 0.513 µM (active) | > 100 µM (inactive) | – | > 100 µM (inactive) | > 100 µM (inactive) | – | > 100 µM (inactive) | > 100 µM (inactive)
C=CCC(NCc1ccccc1)[C@H](OCc1ccccc1)[C@@H]1COC(C)(C)O1 (some centres not stated) | 30.4 µM (inactive) | 42.6 µM (inactive) | – | 23.7 µM | 11.7 µM (inactive) | 23.7 µM (inactive) | > 100 µM (inactive) | 36.1 µM (inactive) | 23.7 µM (inactive) | 18.5 µM (inactive) | – | 44.9 µM (inactive) | 27.8 µM (inactive) | – | 79.3 µM (inactive) | 22.9 µM (inactive) | 40.6 µM (inactive) | 12.7 µM (inactive) | – | 24.7 µM (inactive)
C/C=C\C(CC(=O)OC)CC(=O)N(CCC1CN(S(=O)(=O)C(F)(F)F)c2ccccc21)Cc1ccc(OC)cc1OC (configuration not stated) | > 100 µM (inactive) | > 100 µM (inactive) | > 100 µM (inactive) | > 100 µM | – | 96.6 µM (inactive) | > 100 µM (inactive) | 35.7 µM (inactive) | > 100 µM (inactive) | 61.7 µM (inactive) | > 100 µM (inactive) | > 100 µM (inactive) | > 100 µM (inactive) | > 100 µM (inactive) | > 100 µM (inactive) | > 100 µM (inactive) | – | > 100 µM (inactive) | > 100 µM (inactive) | –
CCOC(=O)[C@@H]1C2C(=C[C@H]3[C@H]1C(=O)N1CCCC[C@H]31)CCCN2C(=O)OCc1ccccc1 (some centres not stated) | 54.5 µM (inactive) | 29.9 µM (inactive) | 43.1 µM (inactive) | 32.8 µM | 30.3 µM (inactive) | 30.8 µM (inactive) | > 100 µM (inactive) | 35 µM (inactive) | 14.3 µM (inactive) | 20.2 µM (inactive) | 47.8 µM (inactive) | 23.3 µM (inactive) | 32.5 µM (inactive) | 43.6 µM (inactive) | 94.8 µM (inactive) | 37.6 µM (inactive) | 17.4 µM (inactive) | 76.4 µM (inactive) | 29.3 µM (inactive) | –
COc1ccc(C[N+](C)(C)N)cc1OC | > 10 µM (inactive) | > 10 µM (inactive) | > 10 µM (inactive) | > 10 µM | > 10 µM (inactive) | 4.03 µM (inactive) | > 10 µM (inactive) | > 10 µM (inactive) | > 10 µM (inactive) | > 10 µM (inactive) | > 100 µM (inactive) | > 10 µM (inactive) | > 10 µM (inactive) | > 10 µM (inactive) | > 10 µM (inactive) | > 10 µM (inactive) | > 100 µM (inactive) | > 10 µM (inactive) | – | > 10 µM (inactive)
OC1CCC(COC(c2ccccc2)(c2ccccc2)c2ccccc2)O1 (configuration not stated) | 19.4 µM (inactive) | 17 µM (inactive) | 17.1 µM (inactive) | 16.9 µM | 18.3 µM (inactive) | 14.8 µM (inactive) | 16.6 µM (inactive) | 21.5 µM (inactive) | 11.1 µM (inactive) | 19.5 µM (inactive) | – | 16.9 µM (inactive) | 15.9 µM (inactive) | 17.3 µM (inactive) | 20.2 µM (inactive) | 16.8 µM (inactive) | 17.2 µM (inactive) | – | 20.2 µM (inactive) | 16.6 µM (inactive)
OCC(O)C(Cl)CCl (configuration not stated) | > 100 µM (inactive) | > 100 µM (inactive) | > 100 µM (inactive) | > 100 µM | > 100 µM (inactive) | > 100 µM (inactive) | > 100 µM (inactive) | – | > 100 µM (inactive) | – | – | > 100 µM (inactive) | > 100 µM (inactive) | > 100 µM (inactive) | > 100 µM (inactive) | > 100 µM (inactive) | > 100 µM (inactive) | – | > 100 µM (inactive) | > 100 µM (inactive)
CCC(=O)Nc1ccc(NC(C#N)c2cccc(Oc3ccccc3)c2)cc1 (configuration not stated) | 35.5 µM (inactive) | 32.7 µM (inactive) | 54.6 µM (inactive) | 45 µM | 33.8 µM (inactive) | 27.5 µM (inactive) | – | 35.5 µM (inactive) | 4.29 µM (inactive) | 23.1 µM (inactive) | 38.6 µM (inactive) | 33.6 µM (inactive) | 45.7 µM (inactive) | 32.9 µM (inactive) | > 100 µM (inactive) | – | 52 µM (inactive) | 34.8 µM (inactive) | 42.3 µM (inactive) | 67.3 µM (inactive)
CCOC(=O)Nc1cc2c(c(N)n1)N=C(c1ccc(OC)cc1)CN2 | 0.00363 µM (active) | 0.00104 µM (active) | < 0.0001 µM (active) | 0.000621 µM | 0.000637 µM (active) | < 0.01 µM (active) | – | < 0.0001 µM (active) | < 0.0001 µM (active) | < 0.01 µM (active) | 0.0112 µM (active) | 0.00119 µM (active) | 0.000269 µM (active) | – | 0.0385 µM (active) | 0.186 µM (active) | < 0.0001 µM (active) | 0.508 µM (active) | 0.582 µM (active) | 0.000494 µM (active)
C=CCc1c(O)c2ccccc2[nH]c1=O | > 100 µM (inactive) | > 100 µM (inactive) | > 100 µM (inactive) | > 100 µM | > 100 µM (inactive) | > 100 µM (inactive) | > 100 µM (inactive) | > 100 µM (inactive) | > 100 µM (inactive) | > 100 µM (inactive) | – | – | > 100 µM (inactive) | > 100 µM (inactive) | – | > 100 µM (inactive) | – | > 100 µM (inactive) | – | > 100 µM (inactive)
O=S(=O)(O)SC/C=C\CSS(=O)(=O)O | > 100 µM (inactive) | > 100 µM (inactive) | > 100 µM (inactive) | > 100 µM | 42.3 µM (inactive) | > 100 µM (inactive) | – | – | > 100 µM (inactive) | > 100 µM (inactive) | > 100 µM (inactive) | 48.9 µM (inactive) | 31.3 µM (inactive) | 66.2 µM (inactive) | 57.8 µM (inactive) | > 100 µM (inactive) | > 100 µM (inactive) | > 100 µM (inactive) | – | –
COc1ccc(CCC2c3cc(OC)c(OC)cc3CCN2C)cc1OC (configuration not stated) | > 100 µM (inactive) | > 100 µM (inactive) | > 100 µM (inactive) | > 100 µM | > 100 µM (inactive) | > 100 µM (inactive) | – | – | > 100 µM (inactive) | > 100 µM (inactive) | > 100 µM (inactive) | > 100 µM (inactive) | > 100 µM (inactive) | > 100 µM (inactive) | > 100 µM (inactive) | > 100 µM (inactive) | > 100 µM (inactive) | 46 µM (inactive) | – | –
CC1CC(OP(=O)(OCc2ccccc2)OCc2ccccc2)[C@@H](OCc2ccccc2)C(OCc2ccccc2)C1OCc1ccccc1 (some centres not stated) | > 100 µM (inactive) | 43.9 µM (inactive) | > 100 µM (inactive) | > 100 µM | 67.9 µM (inactive) | 76.9 µM (inactive) | > 100 µM (inactive) | – | 11.6 µM (inactive) | > 100 µM (inactive) | 0.0555 µM (active) | 62.7 µM (inactive) | 75.5 µM (inactive) | > 100 µM (inactive) | > 100 µM (inactive) | 76.6 µM (inactive) | > 100 µM (inactive) | – | 41.8 µM (inactive) | 79.8 µM (inactive)
